Results published in the supplement of paper PMC4862054.

Legend:
BT-474 [1] = conditions: 72 h
Method in brief: (§1)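 In this assay, breast cancer cell lines spent 72 h with compound at 5 concentrations in 10-fold steps over a compound-specific 10,000-fold range. The first readout was cell death by CellTox Green fluorescence, and the second was viability by CellTiter-Glo luminescence, each normalised per plate to 0.1 % DMSO and a positive kill control. EC50 came from the dose-response curves, censored at the top concentration.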

CAL-85-1 [2] = test: normalised response (% of control), CellTiter-Glo; higher = more viable cells (100 = DMSO, 0 = benzethonium chloride kill control); conditions: incubation time: 72 h
Method in brief: (§2)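 After 72 h with compound in 384-well plates, breast cancer cell lines seeded as 20 µl suspension were read for CellTox Green fluorescence at 485/520 nm. CellTiter-Glo luminescence was then read after 10 min at room temperature. Compound was present at 5 concentrations in 10-fold steps over a 10,000-fold range set per compound, and plates were normalised to 0.1 % DMSO (100) and a positive kill control (0). Values are normalised signals, each at a single concentration.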

HDQ-P1 [3] = test: as above; conditions: incubation time: 72 h
Method in brief: as §2

BT-474 [4] = test: as above; conditions: incubation time: 72 h
Method in brief: as §2

MDA-MB-436 [5] = test: as above; conditions: incubation time: 72 h
Method in brief: as §2

CAL-85-1 [6] = conditions: 72 h
Method in brief: (§3)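 Breast cancer cell lines in 20 µl suspension were seeded onto 384-well plates pre-loaded with compound dissolved in 5 µl medium, then incubated 72 h. For viability, 2.5 µl CellTiter-Blue was added for 2 h at 37 °C and fluorescence read at 560/590 nm. Each plate was normalised to vehicle and a positive kill control and checked by Z'-factor. EC50 comes from the fitted percent-inhibition dose-response curve, censored at the highest concentration; rows with zero drug sensitivity score were dropped.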

MDA-MB-453 [7] = conditions: 72 h
Method in brief: as §3

HDQ-P1 [8] = conditions: 72 h
Method in brief: as §3

DU-4475 [9] = conditions: 72 h
Method in brief: as §3

SK-BR-3 = conditions: 72 h
Method in brief: as §1

CAL-148 = conditions: 72 h
Method in brief: as §1

HCC1143 [10] = conditions: 72 h
Method in brief: as §1

Hs578T [11] = conditions: 72 h
Method in brief: as §1

BT-549 = conditions: 72 h
Method in brief: as §1

CAL-51 = conditions: 72 h
Method in brief: as §1

CAL-85-1 [12] = conditions: 72 h; remark: listed apart in the source
Method in brief: as §1

HCC1937 = conditions: 72 h
Method in brief: as §1

MDA-MB-453 [13] = conditions: 72 h; remark: listed apart in the source
Method in brief: as §1

HDQ-P1 [14] = conditions: 72 h; remark: listed apart in the source
Method in brief: as §1

MFM-223 [15] = conditions: 72 h
Method in brief: as §1

MDA-MB-436 [16] = conditions: 72 h
Method in brief: as §1

DU-4475 [17] = conditions: 72 h; remark: listed apart in the source
Method in brief: as §1

HCC1143 [18] = conditions: 72 h; remark: listed apart in the source
Method in brief: as §3

Hs578T [19] = conditions: 72 h; remark: listed apart in the source
Method in brief: as §3

MDA-MB-468 = conditions: 72 h
Method in brief: as §3

MFM-223 [20] = conditions: 72 h; remark: listed apart in the source
Method in brief: as §3

BT-474 [21] = conditions: 72 h; remark: listed apart in the source
Method in brief: as §3

Hs578T [22] = conditions: 72 h; remark: listed apart in the source
Protocol: (§4)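 Drug sensitivity and resistance testing (DSRT) of breast cancer cell lines in 384-well plates, 5 concentrations in 10-fold dilutions over a compound-specific 10,000-fold range. After 72 h, cytotoxicity was read by CellTox Green fluorescence and viability by CellTiter-Glo luminescence (multiplexed), normalised to DMSO and benzethonium chloride controls. EC50 is the inflection point of the fitted dose-response curve (bottom asymptote free, so it can be relative for partial curves) and is censored at the highest tested concentration. Rows with DSS 0 (no meaningful response) were excluded.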

CAL-85-1 [23] = conditions: 72 h; remark: listed apart in the source
Protocol: as §4

## C=CC[C@@H]1/C=C(\C)C[C@H](C)C[C@H](OC)[C@H]2O[C@@](O)(C(=O)C(=O)N3CCCC[C@H]3C(=O)O[C@H](/C(C)=C/[C@@H]3CC[C@@H](O)[C@H](OC)C3)[C@H](C)[C@@H](O)CC1=O)[C@H](C)C[C@@H]2OC [Tacrolimus]
BT-474 [1]
  EC50, CellTiter-Glo: > 10000 nM

## C=CC[C@@H]1/C=C(\C)C[C@H](C)C[C@H](OC)[C@H]2O[C@@](O)(C(=O)C(=O)N3CCCC[C@H]3C(=O)O[C@H](/C(C)=C/[C@@H]3CC[C@@H](O)[C@H](OC)C3)[C@H](C)[C@@H](O)CC1=O)[C@H](C)C[C@@H]2OC [Tacrolimus] (10000 nM)
CAL-85-1 [2]
  normalised response: 99.6%
HDQ-P1 [3]
  normalised response: 103%
BT-474 [4]
  normalised response: 88.5%
MDA-MB-436 [5]
  normalised response: 98%

## C=CCNC1=C2C[C@@H](C)C[C@H](OC)[C@H](O)[C@@H](C)/C=C(\C)[C@H](OC(N)=O)[C@@H](OC)/C=C\C=C(/C)C(=O)NC(=CC1=O)C2=O [Tanespimycin] (10000 nM)
CAL-85-1 [2]
  normalised response: 21.2%
HDQ-P1 [3]
  normalised response: 20.7%
BT-474 [4]
  normalised response: 22.3%
MDA-MB-436 [5]
  normalised response: 41.8%

## CO[C@H]1C[C@@H]2CC[C@@H](C)[C@@](O)(O2)C(=O)C(=O)N2CCCC[C@H]2C(=O)O[C@H]([C@H](C)C[C@@H]2CC[C@@H](OC(=O)C(C)(CO)CO)[C@H](OC)C2)CC(=O)[C@H](C)/C=C(\C)[C@@H](O)[C@@H](OC)C(=O)[C@H](C)C[C@H](C)/C=C/C=C/C=C/1C [Temsirolimus]
CAL-85-1 [6]
  EC50, CellTiter-Blue viability: 0.11 nM
MDA-MB-453 [7]
  EC50, CellTiter-Blue viability: 0.37 nM
HDQ-P1 [8]
  EC50, CellTiter-Blue viability: 1.34 nM
DU-4475 [9]
  EC50, CellTiter-Blue viability: 2.16 nM
SK-BR-3
  EC50, CellTiter-Glo: 0.46 nM
CAL-148
  EC50, CellTiter-Glo: 1.28 nM
HCC1143 [10]
  EC50, CellTiter-Glo: 0.8 nM
Hs578T [11]
  EC50, CellTiter-Glo: 0.15 nM
BT-549
  EC50, CellTiter-Glo: 0.32 nM
CAL-51
  EC50, CellTiter-Glo: 0.65 nM
CAL-85-1 [12]
  EC50, CellTiter-Glo: 0.67 nM
HCC1937
  EC50, CellTiter-Glo: 0.46 nM
MDA-MB-453 [13]
  EC50, CellTiter-Glo: 1.5 nM
HDQ-P1 [14]
  EC50, CellTiter-Glo: 17.9 nM
MFM-223 [15]
  EC50, CellTiter-Glo: 0.77 nM
MDA-MB-436 [16]
  EC50, CellTiter-Glo: 6.71 nM
DU-4475 [17]
  EC50, CellTiter-Glo: 1.42 nM
HCC1143 [18]
  EC50, CellTiter-Blue viability: 1.62 nM
Hs578T [19]
  EC50, CellTiter-Blue viability: 1 nM
MDA-MB-468
  EC50, CellTiter-Blue viability: 0.39 nM
MFM-223 [20]
  EC50, CellTiter-Blue viability: 0.18 nM
BT-474 [21]
  EC50, CellTiter-Blue viability: 0.67 nM
Hs578T [22]
  EC50, CellTox Green: 1.28 nM

## CO[C@H]1C[C@@H]2CC[C@@H](C)[C@@](O)(O2)C(=O)C(=O)N2CCCC[C@H]2C(=O)O[C@H]([C@H](C)C[C@@H]2CC[C@@H](OC(=O)C(C)(CO)CO)[C@H](OC)C2)CC(=O)[C@H](C)/C=C(\C)[C@@H](O)[C@@H](OC)C(=O)[C@H](C)C[C@H](C)/C=C/C=C/C=C/1C [Temsirolimus] (100 nM)
CAL-85-1 [2]
  normalised response: 60.5%
HDQ-P1 [3]
  normalised response: 77.9%
BT-474 [4]
  normalised response: 84.3%
MDA-MB-436 [5]
  normalised response: 83%

## C[C@]1(c2nc3c(C(N)=O)cccc3[nH]2)CCCN1 [Veliparib]
CAL-51
  EC50, CellTiter-Glo: 50 nM
CAL-85-1 [23]
  EC50, CellTox Green: > 10000 nM

## C[C@]1(c2nc3c(C(N)=O)cccc3[nH]2)CCCN1 [Veliparib] (10000 nM)
CAL-85-1 [2]
  normalised response: 104%
HDQ-P1 [3]
  normalised response: 102%
BT-474 [4]
  normalised response: 82.1%
MDA-MB-436 [5]
  normalised response: 94.5%

## CC[C@]1(O)C[C@@H]2CN(CCc3c([nH]c4ccccc34)[C@@](C(=O)OC)(c3cc4c(cc3OC)N(C)[C@H]3[C@@](O)(C(=O)OC)[C@H](OC(C)=O)[C@]5(CC)C=CCN6CC[C@]43[C@@H]65)C2)C1 [Vinblastine] (1000 nM)
CAL-85-1 [2]
  normalised response: 50.3%
HDQ-P1 [3]
  normalised response: 70.6%
BT-474 [4]
  normalised response: 46.8%
MDA-MB-436 [5]
  normalised response: 22.6%

## CS(=O)(=O)c1ccc(C(=O)Nc2ccc(Cl)c(-c3ccccn3)c2)c(Cl)c1 [Vismodegib]
Hs578T [22]
  EC50, CellTox Green: > 10000 nM

## CS(=O)(=O)c1ccc(C(=O)Nc2ccc(Cl)c(-c3ccccn3)c2)c(Cl)c1 [Vismodegib] (10000 nM)
CAL-85-1 [2]
  normalised response: 103%
HDQ-P1 [3]
  normalised response: 91.7%
BT-474 [4]
  normalised response: 90.4%
MDA-MB-436 [5]
  normalised response: 96.8%
